Results reported in patent US20110245197A1, “HYPERSULFATED GLUCOPYRANOSIDES” (OPKO Health, Inc., priority 2010, published 2011).

Test system: allergic sheep (dual bronchoconstrictor responders to Ascaris suum antigen)
Assay: Antigen-induced change in specific pulmonary airflow resistance (SRL): early (EAR) and late (LAR) airway response in allergic sheep
Assay type: in vivo
Description: Pulmonary airflow resistance was measured by taking allergic sheep previously verified as dual bronchoconstrictor responders to Ascaris suum antigen. The sheep were intubated with a cuffed nasotracheal tube and pulmonary airflow resistance (RL) was measured by the esophageal balloon catheter technique, while thoracic gas volume was measured by body plethysmography. Data were expressed as specific RL (SRL, defined as RL times thoracic gas volume (Vtg)). Airway responsiveness was determined by first securing cumulative dose response curves to inhaled carbachol (a constrictor agonist) by measuring SRL before and after inhalation of buffered saline and after each administration of 10 breaths of increasing concentrations of carbachol (0.25, 0.5, 1.0, 2.0 and 4.0% wt/vol solution). Airway responsiveness was measured by determining the cumulative provocation dose (PD400) of carbachol (in breath units) that increased SRL to 400% above baseline. One breath unit was defined as one breath of 1% carbachol solution.
To illustrate the effectiveness of the formulations according to the invention to treat and alleviate allergen related diseases and conditions, including but not limited to the specific diseases and conditions recited herein, sheep were assessed in multiple experiments which compared various formulations containing no added polymer or additive to animals which were provided formulations comprising a compound of formula I (as compound 1a) along with an optional additive selected from a polymer. To measure pulmonary airflow resistance, the sheep were intubated with a cuffed nasotracheal tube and pulmonary airflow resistance (RL) was measured by the esophageal balloon catheter technique, while thoracic gas volume was measured by body plethysmography. […] Data were expressed as specific RL (SRL defined as RL× thoracic gas volume (Vg).
For airway studies, each animal's baseline airway responsiveness (PD400)) was determined and then, on different experimental days, the test sheep underwent airway challenge with Ascaris suum antigen. […]

[1] = aerosol 0.5 mgs/kg (approximately 20 mgs), thirty minutes before antigen challenge, n=5 (FIG. 11)

aluminum salt of octasulfated sucrose
LAR % protection [1]: 0% | effect on EAR [1]: no significant effect | effectiveness (general statement) (general statement in the description, supported by FIG. 11): not effective
